Experimental data reported in article PMC8549791, “Discovery of SARS-CoV-2 M^pro peptide inhibitors from modelling substrate and ligand binding” (Chemical Science, 2021).
“Also recorded” adds a separate entry of the source. Where two headings read alike, the source gives them in different places. Ends that are not written are not given here.

Columns and labels:
[1] = target: T1, SARS-CoV-2 M^pro (Severe acute respiratory syndrome coronavirus 2, UniProt P0DTD1); conditions: cited from earlier work
[2] = target: T1, SARS-CoV-2 M^pro; assay: biochemical; type: biochemical; set-up: The main protease (M^pro) of SARS-CoV-2; made in house
[3] = test system: SARS-CoV M^pro; conditions: cited from earlier work
[4] = test system: M^pro dimer; type: binding, SARS-CoV-2; conditions: pH 6.9
[5] = target: T1, SARS-CoV-2 M^pro; conditions: pH 7.5
[6] = target: T1, SARS-CoV-2 M^pro
[7] = target: T1, SARS-CoV-2 M^pro; type: biochemical; set-up: The main protease (M^pro) of SARS-CoV-2; made in house; conditions: for depletion of s01 in presence of inhibitor: pH 6.9
[8] = target: T1, SARS-CoV-2 M^pro; type: biochemical; set-up: The main protease (M^pro) of SARS-CoV-2; made in house
[9] = target: T1, SARS-CoV-2 M^pro; assay: biochemical; set-up: The main protease (M^pro) of SARS-CoV-2; made in house; conditions: for Hill slope: pH 7.5

O=c1c2ccccc2[se]n1-c1ccccc1 [Ebselen]
mode of inhibition (in words) [1]: reacts multiple times with M^pro; also recorded: complex mode of inhibition | mode of inhibition [2]: did not support competitive inhibition

FYPKLQ↓SSQAW [s11]
turnover by SARS-CoV M^pro (in words) [3]: medium turnover | complexes with M^pro dimer after 1 min [4]: complexes of the M^pro dimer and the cleavage products were observed | turnover / cleavage (in words) [5]: next preferred substrate for catalysis | turnover (fast/medium/slow) [6]: fast | substrate ion depletion after 1 min ([6]; pH 6.9): > 70% | substrate ion depletion after 6 min ([6]; pH 6.9): > 90%

KYLTWQNSQIN-NH2 [p13]
M^pro dimer/s01-cleavage product complexes in presence of inhibitor [7]: the abundance of these complexes was lower than the abundance of M^pro/p13 complexes | depletion of s01 in presence of inhibitor [7]: 91% | mode of inhibition [2]: competitive inhibition | IC50 ([2]; IC50 at [S] = 2 µM): 2.97 ± 0.21 µM | IC50 ([2]; IC50 at [S] = 10 µM): 4.28 ± 0.8 µM | IC50 ([2]; IC50 at [S] = 20 µM): 6.77 ± 0.46 µM | IC50 ([2]; IC50 at [S] = 40 µM): 18.1 ± 0.96 µM | cleavage products by LCMS [8]: not observed

KYTFWQYSQFY-NH2 [p12]
depletion of s01 in presence of inhibitor [7]: 95% | IC50 ratio R [2]: 3.61 | mode of inhibition [2]: competitive inhibition | IC50 ([2]; IC50 at [S] = 2 µM): 4.53 ± 0.9 µM | IC50 ([2]; IC50 at [S] = 10 µM): 4.99 ± 0.22 µM | IC50 ([2]; IC50 at [S] = 20 µM): 7.49 ± 0.04 µM | IC50 ([2]; IC50 at [S] = 40 µM): 16.3 ± 0.52 µM | IC50 [9]: 5.36 ± 2.17 µM | Hill slope [9]: 1.25 ± 0.06 | cleavage products by LCMS [8]: not observed

LTINWQKYFNT-NH2 [p15]
depletion of s01 in presence of inhibitor [7]: 70% | IC50 ratio R [2]: 4.56 | mode of inhibition [2]: competitive inhibition | IC50 ([2]; IC50 at [S] = 2 µM): 8.26 ± 0.06 µM | IC50 ([2]; IC50 at [S] = 10 µM): 12 ± 0.34 µM | IC50 ([2]; IC50 at [S] = 20 µM): 18.83 ± 0.18 µM | IC50 ([2]; IC50 at [S] = 40 µM): 37.7 ± 2.02 µM | IC50 [9]: 5.31 ± 1.08 µM | Hill slope [9]: 1.17 ± 0.16 | cleavage products by LCMS [8]: not observed

REPMLQ↓SADAQ [s07]
turnover by SARS-CoV M^pro (in words) [3]: slow turnover | complexes with M^pro dimer after 1 min [4]: only M^pro complexes with intact substrates were observed | turnover / cleavage (in words) [5]: Slow turnover | turnover (fast/medium/slow) [6]: slow | substrate ion depletion after 12 min ([6]; pH 6.9): below 50%

SGVTFQ↓SAVKR [s02]
relative catalytic efficiency with SARS-CoV M^pro (in words) [3]: highest relative efficiencies | turnover by SARS-CoV M^pro (in words) [3]: fast turnover | complexes with M^pro dimer after 1 min [4]: complexes of the M^pro dimer and the cleavage products were observed | turnover / cleavage (in words) [5]: hydrolysed less efficiently than s11 | turnover (fast/medium/slow) [6]: medium | substrate ion depletion after 6 min ([6]; pH 6.9): > 70% | substrate ion depletion after 12 min ([6]; pH 6.9): > 90%

WFTLKQYWQTN-NH2 [p16]
depletion of s01 in presence of inhibitor [7]: 78% | IC50 ratio R [2]: 4.85 | mode of inhibition [2]: competitive inhibition | IC50 ([2]; IC50 at [S] = 2 µM): 4.79 ± 0.08 µM | IC50 ([2]; IC50 at [S] = 10 µM): 6.66 ± 0.41 µM | IC50 ([2]; IC50 at [S] = 20 µM): 10.4 ± 0.53 µM | IC50 ([2]; IC50 at [S] = 40 µM): 23.2 ± 0.42 µM | IC50 [9]: 3.76 ± 0.51 µM | Hill slope [9]: 1.19 ± 0.16 | cleavage products by LCMS [8]: not observed
